According to US6518480B1 (priority 1996, dated 2003):

Key:
Wild-type KOR [1] = biological target: T1, Wild-type KOR (Homo sapiens, UniProt P41145); test: biochemical; assay type: binding
T1 construct: expressed in transfected cells; host or cells: COS-7 and CHO-KI (for OR1 and OR2)

OR1 [2] = assay type: binding, human
OR2 [3] = assay type: binding, human
Wild-type KOR [4] = biological target: T1, Wild-type KOR; test: Signaling (activation of G protein-mediated signals, adenylyl cyclase inhibition) by wild-type KOR; assay type: cell-based
OR1 [5] = biological target: OR1 (Homo sapiens, UniProt P41145, G198V/DELINS201-226[…], form not given); test: Signaling (activation of G protein-mediated signals, adenylyl cyclase inhibition) by OR1; assay type: cell-based
Chain of OR1 (Homo sapiens, UniProt P41145, G198V/DELINS201-226[…], form not given) (P41145 with tags, fused parts or gaps DELINS198-226[withheld], form open): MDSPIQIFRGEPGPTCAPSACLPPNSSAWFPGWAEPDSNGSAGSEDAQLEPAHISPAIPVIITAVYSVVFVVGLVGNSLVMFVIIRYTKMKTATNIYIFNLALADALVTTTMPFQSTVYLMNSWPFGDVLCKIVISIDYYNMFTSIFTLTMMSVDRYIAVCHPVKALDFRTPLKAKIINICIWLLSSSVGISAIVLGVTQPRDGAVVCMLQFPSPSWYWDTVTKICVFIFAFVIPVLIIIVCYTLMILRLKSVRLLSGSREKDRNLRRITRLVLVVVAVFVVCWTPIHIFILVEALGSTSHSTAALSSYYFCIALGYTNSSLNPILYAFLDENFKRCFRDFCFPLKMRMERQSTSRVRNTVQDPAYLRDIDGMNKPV

OR1 [6] = test: as above; assay type: cell-based, human; details: relative to signal detected with wild-type KOR
OR2 [7] = biological target: OR2 (Homo sapiens, UniProt P41145, G198V/DELINS201-226[…]/E297Q, form not given); assay type: cell-based; details: read-out: EC50, signaling by OR2; signaling by OR2
Chain of OR2 (Homo sapiens, UniProt P41145, G198V/DELINS201-226[…]/E297Q, form not given) (P41145 with tags, fused parts or gaps DELINS198-226[withheld]/E297Q, form open): as the sequence (P41145 with tags, fused parts or gaps DELINS198-226[withheld], form open) above, with E294Q counted along it

OR2 [8] = assay type: cell-based, human
[9] = relative to signal detected with wild-type KOR

T1 sequence (P41145 whole entry): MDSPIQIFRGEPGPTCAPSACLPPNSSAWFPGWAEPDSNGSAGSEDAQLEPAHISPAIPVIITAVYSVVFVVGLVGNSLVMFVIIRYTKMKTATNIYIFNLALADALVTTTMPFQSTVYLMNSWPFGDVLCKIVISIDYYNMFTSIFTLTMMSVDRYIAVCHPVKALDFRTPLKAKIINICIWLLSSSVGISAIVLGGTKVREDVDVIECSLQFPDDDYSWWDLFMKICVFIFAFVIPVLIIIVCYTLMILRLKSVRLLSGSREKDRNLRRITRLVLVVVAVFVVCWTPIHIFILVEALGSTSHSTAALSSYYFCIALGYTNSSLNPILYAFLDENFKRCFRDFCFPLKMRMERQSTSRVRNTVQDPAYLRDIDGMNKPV

CCC12CCN(CC3(O)CC3)C(Cc3ccc(O)cc31)C2(C)C (stereo not drawn) [Bremazocine, bremazocine]
Fold decrease in binding, Wild-type KOR (Wild-type KOR [1]): 1 fold
Ki (Wild-type KOR [1]): 0.038 nM
Change in binding affinity of OR1 relative to native human KOR (OR1 [2]): no significant change
Fold decrease in binding, OR1 (OR1 [2]): 1.7 fold
Change in binding affinity of OR2 relative to native human KOR (OR2 [3]): no change
Fold decrease in binding, OR2 (OR2 [3]): 1.2 fold
EC50 (Wild-type KOR [4]): 0.067 nM
Fold decrease in signaling, Wild-type KOR (Wild-type KOR [4]; [9]): 1 fold
Inhibition of adenylyl cyclase by OR1 in response to ligand (OR1 [5]; dynorphin only at high concentrations): inhibits adenylyl cyclase
EC50 (OR1 [5]; read-out: EC50, signaling by OR1, signaling by OR1): 0.068 nM
Fold decrease in signaling, OR1 (OR1 [6]): 1 fold
EC50 (OR2 [7]): 0.34 nM
Fold decrease in signaling, OR2 (OR2 [8]; [9]): 5.17 fold
Biochemical Signal, decrease (summary), OR2 (OR2 [8]; summary table, ↓ = decrease versus wild-type KOR): ↓5x
Amount of ligand required to activate the biochemical signal at OR2 compared to wild-type KOR (OR2 [8]; times more ligand than for wild type KOR): about 5 times
